Experimental data as given in patent US9714245B2, “Carboline compounds usable in the treatment of neurodegenerative diseases” (ALZPROTECT, priority 2013, dated 2017).
pIC50: −log10 of the molar value.

Assays:
[1] = Metabolic stability (method not described); settings: comparative statement
[2] = tested on: secreted Aβ1-40; assay: Aβ1-40 secretion by APP-transfected neuroblastoma cells (ELISA); assay type: cell-based; settings: Homo sapiens, Neuroblastoma cell; SKNSH-SYSY APPWT cells; concentration decreasing secreted Aβ1-40 to 50% of basal amount
Description: (§1) Cell Cultures and Transfections to Test Activity on Aβ1-40 and Aβ1-42 Secretion
(§2) Human neuroblastoma cell line SKNSH-SYSY (ATCC® Catalog No. CRL-2266™), HEK (ATCC® CRL-1573™) and COS-1 (ATCC® CRL-1650™) cells were maintained in Dulbecco's modified Eagle medium (DMEM, GIBCO BRL) supplemented with 10% fetal calf serum, 2 mM L-glutamine, 1 mM non-essential amino acids, 50 units/ml penicillin/streptomycin (Invitrogen, France) in a 5% CO2 humidified incubator at 37° C. APP695 cDNA was subcloned into eukaryotic expression vector pcDNA3 (Invitrogen), allowing for a G418 (Invitrogen) selection of clones. This APP cDNA coding for the 695 amino acid long isoform was transfected into SKNSH-SYSY cells using the ethyleneimine polymer ExGen 500 (Euromedex) according to the manufacturer's instructions. The cells expressing APP (SKNSH-SYSY APP^WT) were selected by the addition of 200 μg/ml G418 in the cell medium. To quantify AR which released in the cell culture medium, the collected medium was spun at 200×g to eliminate the cell debris. The concentrations of secreted Aâ1-40 and Aβ1-42 were determined using the Human Aβ (1-40) Assay Kit (IBL) or the INNOTEST™ beta-Amyloid (1-42) ELISA Kit (Innogenetics), according to manufacturer's instructions. The results were expressed as IC50, i.e. the concentration able to decrease to 50% the basal amount of secreted Aβ peptide 1-40 and 1-42.

[3] = tested on: secreted Aβ1-42; assay: Aβ1-42 secretion by APP-transfected neuroblastoma cells (ELISA); assay type: cell-based; settings: Homo sapiens, Neuroblastoma cell; SKNSH-SYSY APPWT cells; concentration decreasing secreted Aβ1-42 to 50% of basal amount
Description: as §1, §2

[4] = tested on: AICD; assay: Quantification of AICD by Western blot in SY5Y-APPWT cells; assay type: cell-based, Human; settings: compared to a control with a value of 100
Description: Quantifications of APP-CTFs and AICD
After treatment, SY5Y-APP^WT cells were scrapped and lysed in 1× Lysis Buffer (250 mM NaCl, 50 mM Tris, pH 8.8, 5 mM EDTA, 2.5% Triton X-100, 1% Deoxycholate, 0.1% SDS). For the Western blotting, an equal amount of total proteins (20 μg/lane) was loaded on a 16.5% Tris-Tricine or 8-16% Tris-Glycine polyacrylamide gel.
SDS-polyacrylamide gel electrophoresis (PAGE) was performed using the Criterion™ Tris-Tricine-precast or Bis-Tris-precast criterion gels (Bio-Rad Bioresearch division). Proteins were transferred to a […] nitrocellulose membrane (Hybond, Amersham Biosciences) at 2.5 mA/cm2 per gel using the Criterion™ Blotter system (Amersham Biosciences), according to the manufacturer's instructions. Proteins were reversibly stained with Ponceau Red in order to check the quality of the transfer of protein. The membranes were blocked in 25 mM Tris-HCl pH 8.0, 150 mM NaCl, 0.1% Tween-20 (v/v) and 5% (w/v) of skimmed milk for 30 min. Membranes were incubated overnight at 4° C. with appropriate dilution of the primary antibodies, and were incubated for 1 h at room temperature with secondary antibody. […] Quantifications were calculated with Image J software (NIH) and the data were collected using Excel Software (Microsoft). The loading variations between Western blot lanes were normalized according to the tubulin signal. Quantification of CTFα and AICD were compared to control conditions (considered as 100 in arbitrary units) and are presented for two concentrations of the drug: 1 and 10 μM.

[5] = tested on: CTFα; assay: In vivo chronic treatment, CTFα in brain tissue; parameters: species or system C57Bl6 mice; settings: 12 weeks in drinking water, 3 mg/kg
Description: In Vivo Chronic Treatment
Female C57Bl6 mice of 4 month-old were treated with either vehicle (control) or drug at 1 and 3 mg/kg (n=10 per group) for 12 weeks in drinking water. First of all, all mice were weighted and distributed in each cage in order to have approximately the same average of weight±SD per cage. Each concentration of product as well as vehicule was prepared in sterile bottles and the bottles were kept at room temperature protected from light. The drinking bottles were filled weekly and weighted. Volume consumed was calculated by weighting each bottle after each week and the remaining volume was discarded. After 12 weeks, mice were sacrificed and their troncal blood was collected and stored at 4° C. Brains were immediately removed to dissect the Frontal Cortex, the Cortex around the Hippocampus and the Hippocampus. These areas were stored at −80° C. until use. Blood was then centrifuged at 2100×g for 5 min. Resulting plasma was used to quantify the circulating drug and brain tissues were used for biochemical determinations (PFC: prefrontal cortex and HIP: hippocampus).

[6] = Cytotoxicity evaluation (MTS assay); assay type: cell-based, Human; settings: human, SY5Y-APPWT neuroblastoma cells (expressing APP); SY5Y-APPWT cells, 24 h treatment, MTS
Description: (§3) Human neuroblastoma cell line SY5Y-APP^WT was used to assess the cytotoxic effects of each compound. SY5Y-APP^WT cells were seeded at 20000 cells/well onto 96-well plates and were cultured in Dulbecco's modified Eagle medium (DMEM, Invitrogen) supplemented with 10% fetal calf serum (PAA), 2 mM L-glutamine (Invitrogen), 1 mM non-essential amino acids (Invitrogen), 50 units/ml penicillin/streptomycin (Invitrogen), and 200 μg G418=geneticin (Invitrogen) (selection for cells expressing APP) in a 5% CO2 humidified incubator at 37° C. After 24 h, the cells were washed and incubated with the compound at 0.1; 0.3; 1; 3; 10; 30 and 100 μM or with DMSO as control diluted in the same culture medium at 37° C. in 5% CO2. After 24 h of treatment, cytotoxicity was determined by using colorimetric MTS assay (CellTiter 96® Aqueous One Solution Cell Proliferation Assay-MTS Promega) according to the protocol of the manufacturer. Absorbance was read at 490 nm and results were expressed as % from control condition considered as 100%.

[7] = tested on: SY5Y-APPWT cells; assay: Cytotoxicity evaluation (MTS assay); assay type: cell-based, Human; settings: comparative statement
Description: as §3

[8] = tested on: sAPPα; assay: Soluble APPα quantification (ELISA); assay type: cell-based, Human; settings: 24 h, control considered as 100
Description: Soluble APPα Quantification
Human neuroblastoma cell line SKNSH-SYSY APP′ was cultured in Dulbecco's modified Eagle medium (Invitrogen) supplemented with 10% fetal calf serum (PAA), 2 mM L-glutamine (Invitrogen), 1 mM non-essential amino acids (Invitrogen), 50 units/ml penicillin/streptomycin (Invitrogen), and 200 μg G418=geneticin (Invitrogen) (selection for cell expressing APP) in a 5% CO2 humidified incubator at 37° C. Cells were counted and seed at 400000 cells/well into a 12-wells plate for 24 h. The day after, cells were treated with 700 μL/well of drug at 0.3; 1; 3 and 10 μM and incubated for 24 h in a 5% CO2 incubator at 37° C. After treatment, culture medium samples were collected and stored at −80° C. until analysis. Samples corresponding to the 1 and 10 μM treatment were centrifuged 1500 rpm for 5 min at 4° C. sAPPα quantification by ELISA was done with Human sAPPα Assay Kit-IBL (Cat#27734) in accordance with manufacturer's protocol. Samples were diluted at 1:150 in the diluent buffer provided in the kit. Each sample was loaded in duplicate onto the 96 well-plate. Results are expressed in ng/ml and then compared to control conditions (considered as 100 in arbitrary units) and are presented for two concentrations of the drug: 1 and 10 μM.

Compound: Fc1ccc2[nH]c3c(c2c1)CN(CCCN1CCN(CCCN2CCCC2)CC1)CC3 [Compound 3.1f, 8-Fluoro-2-{3-[4-(3-(pyrrolidin-1-yl)propyl)piperazin-1-yl]propyl}-2,3,4,5-tetrahydro-1H-pyrido[4,3-b]indole]
- metabolic stability (in words) [1]: metabolically more stable
- pIC50 [2]: 5.52
- pIC50 [3]: 6.00
- AICD (10 μM) [4]: 1011 arbitrary units
- increase of CTFα in hippocampus (HIP) [5]: 25%
- increase of CTFα in prefrontal cortex (PFC) [5]: 20%
- CC50 at 24 h [6]: > 100 µM
- toxicity (in words) [7]: less toxic
- sAPPα (10 μM) [8]: 100 arbitrary units
